Data reported in patent US10166218B2, “3-(1H-indol-2-yl)-1H-pyrazolo[3,4-C]pyridines and therapeutic uses thereof” (Samumed, LLC, priority 2015, dated 2019).

Test system: Wnt activity (Sp5-Luc reporter, TCF/LEF binding sites) in SW480 colon carcinoma cells
Experiment: Screening assay for Wnt activity: Sp5-Luc reporter gene assay in stably transduced SW480 cells
Type: cell-based
Conditions: Homo sapiens; for EC50: overnight incubation; for inhibition at 10 µM: read-out: percent inhibition at 10 μM (given for EC50 of >10 μM)
Summary of the method: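 SW480 cells stably transduced with an Sp5 promoter (eight TCF/LEF sites)–firefly luciferase lentiviral reporter, plated at 4,000 cells/well in 1% FBS medium with compounds (10-point 1:3 series from 10 μM, 0.1% DMSO) overnight at 37 °C. BrightGlo luminescence normalised to DMSO; EC50 by four-parameter fit, else % inhibition at 10 μM.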

CC(C)(C)C(=O)Nc1cncc(-c2cc3c(-c4cc5c(-c6ccncc6)cccc5[nH]4)n[nH]c3cn2)c1 [Compound 120, N-(5-(3-(4-(Pyridin-4-yl)-1H-indol-2-yl)-1H-pyrazolo[3,4-c]pyridin-5-yl)pyridin-3-yl)pivalamide]
EC50: 194 nM

O=C(Nc1cncc(-c2cc3c(-c4cc5c(-c6cccc(F)c6)cccc5[nH]4)n[nH]c3cn2)c1)C1CCC1 [Compound 21, N-(5-(3-(4-(3-Fluorophenyl)-1H-indol-2-yl)-1H-pyrazolo[3,4-c]pyridin-5-yl)pyridin-3-yl)cyclobutanecarboxamide]
EC50: 1510 nM

O=C(Nc1cncc(-c2cc3c(-c4cc5c(-c6ccc(F)cc6)cccc5[nH]4)n[nH]c3cn2)c1)C1CCCCC1 [Compound 51, N-(5-(3-(4-(4-Fluorophenyl)-1H-indol-2-yl)-1H-pyrazolo[3,4-c]pyridin-5-yl)pyridin-3-yl)cyclohexanecarboxamide]
inhibition at 10 µM: 32.6% | EC50: > 10000 nM

FC1(F)CCN(Cc2cncc(-c3cc4c(-c5cc6c(N7CCCCC7)cccc6[nH]5)n[nH]c4cn3)c2)C1 [Compound 194, 5-(5-((3,3-Difluoropyrrolidin-1-yl)methyl)pyridin-3-yl)-3-(4-(piperidin-1-yl)-1H-indol-2-yl)-1H-pyrazolo[3,4-c]pyridine]
EC50: 1830 nM

CC(C)CC(=O)Nc1cncc(-c2cc3c(-c4cc5c(-c6ccc(F)cc6)cccc5[nH]4)n[nH]c3cn2)c1 [Compound 30, N-(5-(3-(4-(4-Fluorophenyl)-1H-indol-2-yl)-1H-pyrazolo[3,4-c]pyridin-5-yl)pyridin-3-yl)-3-methylbutanamide]
EC50: 1540 nM

Cn1cc(-c2cc3c(-c4cc5ncccc5[nH]4)n[nH]c3cn2)cn1 [Compound 1022, 5-(1-Methyl-1H-pyrazol-4-yl)-3-(1H-pyrrolo[3,2-b]pyridin-2-yl)-1H-pyrazolo[3,4-c]pyridine]
EC50: 47 nM

Nc1cncc(-c2cc3c(-c4cc5ncccc5[nH]4)n[nH]c3cn2)c1 [Compound 507, 5-(3-(1H-Pyrrolo[3,2-b]pyridin-2-yl)-1H-pyrazolo[3,4-c]pyridin-5-yl) pyridin-3-amine]
EC50: 248 nM

c1cc(-c2ccncc2)c2cc(-c3n[nH]c4cnc(-c5cncnc5)cc34)[nH]c2c1 [Compound 139, 3-(4-(Pyridin-4-yl)-1H-indol-2-yl)-5-(pyrimidin-5-yl)-1H-pyrazolo[3,4-c]pyridine]
EC50: 1230 nM

c1cnc2cc(-c3n[nH]c4cnc(-c5cncc(CNCC6CCCC6)c5)cc34)[nH]c2c1 [Compound 529, 1-(5-(3-(1H-Pyrrolo[3,2-b]pyridin-2-yl)-1H-pyrazolo[3,4-c]pyridin-5-yl)pyridin-3-yl)-N-(cyclopentylmethyl)methanamine]
EC50: 2310 nM

CC(C)(C)CC(=O)Nc1cncc(-c2cc3c(-c4cc5ccccc5[nH]4)n[nH]c3cn2)c1 [Compound 268, N-(5-(3-(1H-Indol-2-yl)-1H-pyrazolo[3,4-c]pyridin-5-yl)pyridin-3-yl)-3,3-dimethylbutanamide]
EC50: 615 nM

Cc1ccncc1-c1cc2c(-c3cc4c(-c5cccc(F)c5)cccc4[nH]3)n[nH]c2cn1 [Compound 5, 3-(4-(3-Fluorophenyl)-1H-indol-2-yl)-5-(4-methylpyridin-3-yl)-1H-pyrazolo [3,4-c]pyridine]
EC50: 590 nM

O=C(Nc1cncc(-c2cc3c(-c4cc5ccccc5[nH]4)n[nH]c3cn2)c1)C1CCCCC1 [Compound 275, N-(5-(3-(1H-Indol-2-yl)-1H-pyrazolo[3,4-c]pyridin-5-yl)pyridin-3-yl) cyclohexanecarboxamide]
EC50: 635 nM

CC(C)(C)CC(=O)Nc1cncc(-c2cc3c(-c4cc5c(-c6ccncc6)cccc5[nH]4)n[nH]c3cn2)c1 [Compound 128, 3,3-Dimethyl-N-(5-(3-(4-(pyridin-4-yl)-1H-indol-2-yl)-1H-pyrazolo[3,4-c]pyridin-5-yl)pyridin-3-yl)butanamide]
inhibition at 10 µM: 46.5% | EC50: > 10000 nM

O=C(Nc1cncc(-c2cc3c(-c4cc5c(N6CCCCC6)cccc5[nH]4)n[nH]c3cn2)c1)C1CC1 [Compound 188, N-(5-(3-(4-(Piperidin-1-yl)-1H-indol-2-yl)-1H-pyrazolo[3,4-c]pyridin-5-yl)pyridin-3-yl)cyclopropanecarboxamide]
EC50: 2420 nM

CN1CCN(c2cccc3[nH]c(-c4n[nH]c5cnc(-c6cncc(NC(=O)C7CCC7)c6)cc45)cc23)CC1 [Compound 245]
EC50: 1970 nM

c1cc(-c2ccoc2)c2cc(-c3n[nH]c4cnc(-c5cn[nH]c5)cc34)[nH]c2c1 [Compound 711, 3-(4-(Furan-3-yl)-1H-indol-2-yl)-5-(1H-pyrazol-4-yl)-1H-pyrazolo[3,4-c]pyridine]
EC50: 203 nM

O=C(Cc1ccccc1)Nc1cncc(-c2cc3c(-c4cc5c(-c6ccc(F)cc6)cccc5[nH]4)n[nH]c3cn2)c1 [Compound 38, N-(5-(3-(4-(4-Fluorophenyl)-1H-indol-2-yl)-1H-pyrazolo[3,4-c]pyridin-5-yl)pyridin-3-yl)-2-phenylacetamide]
EC50: 4310 nM

O=C(Nc1cncc(-c2cc3c(-c4cc5c(-c6cccc(F)c6)cccc5[nH]4)n[nH]c3cn2)c1)c1ccccc1 [Compound 11, N-(5-(3-(4-(3-Fluorophenyl)-1H-indol-2-yl)-1H-pyrazolo[3,4-c]pyridin-5-yl)pyridin-3-yl)benzamide]
inhibition at 10 µM: 50.2% | EC50: > 10000 nM

CC(C)C(=O)Nc1cncc(-c2cc3c(-c4cc5c(-c6ccccc6F)cccc5[nH]4)n[nH]c3cn2)c1 [Compound 65, N-(5-(3-(4-(2-Fluorophenyl)-1H-indol-2-yl)-1H-pyrazolo[3,4-c]pyridin-5-yl)pyridin-3-yl)isobutyramide]
inhibition at 10 µM: 35.8% | EC50: > 10000 nM

Fc1ccc(-c2cccc3[nH]c(-c4n[nH]c5cnc(-c6cncnc6)cc45)cc23)cc1 [Compound 55, 3-(4-(4-Fluorophenyl)-1H-indol-2-yl)-5-(pyrimidin-5-yl)-1H-pyrazolo[3,4-c]pyridine]
EC50: 4140 nM

CN(C)CCOc1cncc(-c2cc3c(-c4cc5ncccc5[nH]4)n[nH]c3cn2)c1 [Compound 1029, 2-((5-(3-(1H-Pyrrolo[3,2-b]pyridin-2-yl)-1H-pyrazolo[3,4-c]pyridin-5-yl)pyridin-3-yl)oxy)-N,N-dimethylethan-1-amine]
EC50: 3060 nM

c1csc(-c2cccc3[nH]c(-c4n[nH]c5cnc(C6CCNCC6)cc45)cc23)c1 [Compound 725, 5-(Piperidin-4-yl)-3-(4-(thiophen-2-yl)-1H-indol-2-yl)-1H-pyrazolo[3,4-c]pyridine]
inhibition at 10 µM: 25.9% | EC50: > 10000 nM

Fc1ccccc1-c1cccc2[nH]c(-c3n[nH]c4cnc(-c5cn[nH]c5)cc34)cc12 [Compound 567, 3-(4-(2-Fluorophenyl)-1H-indol-2-yl)-5-(1H-pyrazol-4-yl)-1H-pyrazolo[3,4-c]pyridine]
EC50: 203 nM

O=C(Nc1cncc(-c2cc3c(-c4cc5c(-c6ccncc6)cccc5[nH]4)n[nH]c3cn2)c1)C1CCC1 [Compound 133, N-(5-(3-(4-(Pyridin-4-yl)-1H-indol-2-yl)-1H-pyrazolo[3,4-c]pyridin-5-yl)pyridin-3-yl)cyclobutanecarboxamide]
EC50: 401 nM

c1cc(N2CCCCC2)c2cc(-c3n[nH]c4cnc(-c5cncc(OC6CCCCC6)c5)cc34)[nH]c2c1 [Compound 635, 5-(5-(Cyclohexyloxy)pyridin-3-yl)-3-(4-(piperidin-1-yl)-1H-indol-2-yl)-1H-pyrazolo[3,4-c]pyridine]
EC50: 3840 nM

Cc1ccncc1-c1cc2c(-c3cc4c(-c5ccncc5)cccc4[nH]3)n[nH]c2cn1 [Compound 117, 5-(4-Methylpyridin-3-yl)-3-(4-(pyridin-4-yl)-1H-indol-2-yl)-1H-pyrazolo [3,4-c]pyridine]
inhibition at 10 µM: 43.1% | EC50: > 10000 nM

CCCCC(=O)Nc1cncc(-c2cc3c(-c4cc5c(-c6ccccc6F)cccc5[nH]4)n[nH]c3cn2)c1 [Compound 75, N-(5-(3-(4-(2-Fluorophenyl)-1H-indol-2-yl)-1H-pyrazolo[3,4-c]pyridin-5-yl)pyridin-3-yl)pentanamide]
inhibition at 10 µM: 11.1% | EC50: > 10000 nM

O=C(Nc1cncc(-c2cc3c(-c4cc5c(-c6ccccc6F)cccc5[nH]4)n[nH]c3cn2)c1)C1CC1 [Compound 76, N-(5-(3-(4-(2-Fluorophenyl)-1H-indol-2-yl)-1H-pyrazolo[3,4-c]pyridin-5-yl)pyridin-3-yl)cyclopropanecarboxamide]
EC50: 940 nM

CS(=O)(=O)NCc1cc(F)cc(-c2cccc3[nH]c(-c4n[nH]c5cnc(-c6cncc(NC(=O)c7ccccc7)c6)cc45)cc23)c1 [Compound 487, N-(5-(3-(4-(3-Fluoro-5-(methylsulfonamidomethyl)phenyl)-1H-indol-2-yl)-1H-pyrazolo[3,4-c]pyridin-5-yl)pyridin-3-yl)benzamide]
EC50: 800 nM
